Data published in US8058292B2, “Therapeutic agents useful for treating pain” (Purdue Pharma L.P., priority 2003, dated 2011).

Molecular target: T1, rat mGluR5 (Rattus norvegicus, UniProt P31424)
T1 construct: expressed in transfected cells; host or cells: CHO cells (CHO-rat mGluR5 line, kept under Geneticin selection)
Assay: Calcium mobilization flux (FLIPR) in CHO-rat mGluR5 cells in the presence of glutamate
Format: cell-based
Details: 10 uM glutamate, Fluo 4 calcium flux, mean of 4 experiments
Description: 40,000 CHO-rat mGluR5 cells/well were plated into 96 well plate (Costar 3409, Black, clear bottom, 96 well, tissue culture treated) for an overnight incubation in Dulbecco's Modified Eagle's Medium (DMEM, pH 7.4) and supplemented with glutamine, 10% FBS, 1% Pen/Strep, and 500 ug/mL Geneticin. CHO-rat mGluR5 cells were washed and treated with Optimem medium and were incubated for 1-4 hours prior to loading cells. […]
The plates containing the CHO-rat mGluR5 cells were transferred to a FLIPR for the assessment of calcium mobilization flux in the presence of glutamate and in the presence or absence of test compounds. After monitoring fluorescence for 15 seconds to establish a baseline, DMSO solutions containing various concentrations of the test compound diluted in loading buffer (0.05 mL of 4× dilutions for the competition curves) were added to the cell plate and fluorescence was monitored for 2 minutes. […] Plate fluorescence was then monitored for an additional 60 seconds after agonist addition. […] In each experiment, fluorescence was monitored as a function of time and the data analyzed using Microsoft Excel and GraphPad Prism. […] In each experiment, each data point was determined at least two times.

T1 sequence (P31424 21-1203): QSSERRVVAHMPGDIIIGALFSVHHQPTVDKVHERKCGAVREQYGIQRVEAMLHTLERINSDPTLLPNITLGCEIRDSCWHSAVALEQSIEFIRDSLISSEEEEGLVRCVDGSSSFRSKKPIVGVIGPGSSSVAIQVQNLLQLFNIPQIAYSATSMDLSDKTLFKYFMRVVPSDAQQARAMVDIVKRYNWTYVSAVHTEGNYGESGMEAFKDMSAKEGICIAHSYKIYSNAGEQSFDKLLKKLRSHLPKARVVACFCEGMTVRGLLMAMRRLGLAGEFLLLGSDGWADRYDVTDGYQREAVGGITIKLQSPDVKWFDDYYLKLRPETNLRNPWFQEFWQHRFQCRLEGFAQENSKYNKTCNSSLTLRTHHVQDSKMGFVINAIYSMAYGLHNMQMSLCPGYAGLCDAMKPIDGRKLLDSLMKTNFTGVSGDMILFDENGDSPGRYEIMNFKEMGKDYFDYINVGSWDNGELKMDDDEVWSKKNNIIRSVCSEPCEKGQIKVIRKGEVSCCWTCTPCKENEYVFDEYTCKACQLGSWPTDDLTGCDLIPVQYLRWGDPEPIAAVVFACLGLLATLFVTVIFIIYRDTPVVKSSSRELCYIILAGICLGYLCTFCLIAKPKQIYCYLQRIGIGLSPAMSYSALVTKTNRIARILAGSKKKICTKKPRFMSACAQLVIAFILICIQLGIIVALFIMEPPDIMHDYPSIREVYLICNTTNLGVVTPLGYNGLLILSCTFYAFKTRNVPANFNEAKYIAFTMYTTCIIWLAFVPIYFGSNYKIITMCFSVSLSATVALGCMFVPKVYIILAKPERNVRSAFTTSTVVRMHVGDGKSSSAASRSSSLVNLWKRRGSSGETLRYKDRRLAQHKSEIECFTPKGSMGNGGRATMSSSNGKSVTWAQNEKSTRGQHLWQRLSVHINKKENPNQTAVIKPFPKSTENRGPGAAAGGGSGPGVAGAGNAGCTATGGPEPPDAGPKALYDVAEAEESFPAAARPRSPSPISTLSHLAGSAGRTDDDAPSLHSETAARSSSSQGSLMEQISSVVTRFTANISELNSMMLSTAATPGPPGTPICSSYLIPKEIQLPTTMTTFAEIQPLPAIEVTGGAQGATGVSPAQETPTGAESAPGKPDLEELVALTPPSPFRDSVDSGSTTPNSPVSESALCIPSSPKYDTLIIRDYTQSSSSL

## O=C(C#Cc1ccccc1)N1CC(Nc2ncccc2[N+](=O)[O-])C1 [AAB(Ib)]
  IC50: 0.11 ± 0.0179 µM
